The source of these data is patent publication US9598423B2 (BRISTOL-MYERS SQUIBB COMPANY, priority 2013, dated 2017).

Experiment [1] has as its target CK1ε (Homo sapiens (Human), UniProt P49674). In words: CK1ε kinase assay (Caliper LABCHIP electrophoretic separation of fluoresceinated peptide substrate and product). It counts as biochemical. The note with it: 200 pM CK1ε, 50 μM ATP, 1.5 μM peptide substrate, 22 hours at room temperature; read-out: CK1ε (IC50). The protocol: (§1) CK1ε and CK1δ Kinase Assays
(§2) The kinase assay was performed in V-bottom 384-well plates. […] The reaction was incubated at room temperature for 22 hours and terminated by adding 45 μl of 35 mM EDTA to each sample. The reaction mixture was analyzed on the Caliper LABCHIP®3000 (Caliper, Hopkinton, Mass.) by electrophoretic separation of the unphosphorylated substrate and phosphorylated product. […] Compounds were dissolved at 10 mM in dimethylsulfoxide (DMSO) and evaluated at eleven concentrations. IC50 values were derived by non-linear regression analysis.

Experiment [2] deals with CK1δ (Homo sapiens (Human), UniProt P48730). Briefly: CK1δ kinase assay (Caliper LABCHIP electrophoretic separation of fluoresceinated peptide substrate and product). The experiment is classed as biochemical. The note with it: 200 pM CK1δ, 50 μM ATP, 1.5 μM peptide substrate, 22 hours at room temperature; read-out: CK1δ (IC50). The method, then:
as §1, §2

CK1ε, sequence (P49674 whole entry): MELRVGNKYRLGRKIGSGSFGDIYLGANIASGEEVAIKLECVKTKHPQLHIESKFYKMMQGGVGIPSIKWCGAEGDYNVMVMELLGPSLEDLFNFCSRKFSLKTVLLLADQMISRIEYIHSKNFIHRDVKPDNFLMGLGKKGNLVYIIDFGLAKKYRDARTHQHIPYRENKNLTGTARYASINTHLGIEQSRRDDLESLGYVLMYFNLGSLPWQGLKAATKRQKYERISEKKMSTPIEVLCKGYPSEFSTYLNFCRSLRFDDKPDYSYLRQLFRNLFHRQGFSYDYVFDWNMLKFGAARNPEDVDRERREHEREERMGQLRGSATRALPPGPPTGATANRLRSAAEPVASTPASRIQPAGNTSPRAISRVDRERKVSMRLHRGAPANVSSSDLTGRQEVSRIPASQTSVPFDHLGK
CK1δ, sequence (P48730 whole entry): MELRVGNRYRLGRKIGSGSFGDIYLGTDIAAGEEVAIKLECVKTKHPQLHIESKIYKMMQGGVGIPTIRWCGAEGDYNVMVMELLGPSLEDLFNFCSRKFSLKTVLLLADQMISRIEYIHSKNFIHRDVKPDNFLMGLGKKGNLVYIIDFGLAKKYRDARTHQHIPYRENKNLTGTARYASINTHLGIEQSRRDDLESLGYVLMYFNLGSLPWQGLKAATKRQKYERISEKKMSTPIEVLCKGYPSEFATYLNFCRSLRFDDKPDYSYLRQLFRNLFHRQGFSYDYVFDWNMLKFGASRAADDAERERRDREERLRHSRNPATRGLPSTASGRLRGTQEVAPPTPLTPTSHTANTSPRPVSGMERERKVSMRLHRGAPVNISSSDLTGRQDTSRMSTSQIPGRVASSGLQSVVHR

Regarding `COc1cccc(-c2nn3c(c2C(N)=O)CN(C(=O)Nc2ccc(Cl)c(Cl)c2)CC3)c1` [Compound 303, N^5-(3,4-Dichlorophenyl)-2-(3-methoxyphenyl)-6,7-dihydropyrazolo[1,5-a] pyrazine-3,5(4H)-dicarboxamide], the IC50 in experiment [1] and in experiment [2] was 0.01 to 10 nM throughout.

On to `NC(=O)c1c(-c2cccc(F)c2)nn2c1CN(C(=O)NC1CCN(CCC(F)(F)F)CC1)CC2` [Compound 103, 2-(3-Fluorophenyl)-N^5-(1-(3,3,3-trifluoropropyl)piperidin-4-yl)-6,7-dihydropyrazolo[1,5-a]pyrazine-3,5(4H)-dicarboxamide], for which the half-maximal inhibitory concentration (IC50) (usually the concentration that inhibits the measured activity by half) fell in the range of 10 to 100 nM in experiment [1] and 0.01 to 10 nM in experiment [2].

`Cc1nc2cc(-c3nn4c(c3C(N)=O)CN(C(=O)Nc3ccc(C#N)c(Cl)c3)CC4)cc(Cl)c2o1` [Compound 312, 2-(7-Chloro-2-methylbenzo[d]oxazol-5-yl)-N^5-(3-chloro-4-cyanophenyl)-6,7-dihydropyrazolo[1,5-a]pyrazine-3,5(4H)-dicarboxamide]: the IC50 in experiment [1] and in experiment [2] was 0.01 to 10 nM each time.

For `COc1ccc(NC(=O)N2CCn3nc(-c4cccc(F)c4)c(C(N)=O)c3C2)cc1` [Compound 51, 2-(3-Fluorophenyl)-N^5-(4-methoxyphenyl)-6,7-dihydropyrazolo[1,5-a]pyrazine-3,5(4H)-dicarboxamide], the IC50 in experiment [1] and in experiment [2] was 0.01 to 10 nM throughout.

Take `NC(=O)c1c(-c2cccc(Cl)c2)nn2c1CN(C(=O)Nc1ccc(F)cc1)CC2` [Compound 157, 2-(3-Chlorophenyl)-N^5-(4-fluorophenyl)-6,7-dihydropyrazolo[1,5-a]pyrazine-3,5(4H)-dicarboxamide]: the IC50 in experiment [1] and in experiment [2] was 0.01 to 10 nM throughout.

In the case of `CC(C)(OC(=O)N1CCC(NC(=O)N2CCn3nc(-c4cccc(F)c4)c(C(N)=O)c3C2)CC1)C(F)(F)F` [Compound 101, 1,1,1-Trifluoro-2-methylpropan-2-yl 4-(3-carbamoyl-2-(3-fluorophenyl)-4,5,6,7-tetrahydropyrazolo[1,5-a]pyrazine-5-carboxamido)piperidine-1-carboxylate], the IC50 in experiment [1] and in experiment [2] was 0.01 to 10 nM each time.

On to `CN(C)c1cc(Cl)cc(-c2nn3c(c2C(N)=O)CN(C(=O)Nc2ccc(C#N)c(C(F)(F)F)c2)CC3)c1` [Compound 266, 2-(3-Chloro-5-(dimethylamino)phenyl)-N^5-(4-cyano-3-(trifluoromethyl)phenyl)-6,7-dihydropyrazolo[1,5-a]pyrazine-3,5(H)-dicarboxamide], for which the half-inhibitory concentration (IC50) in experiment [1] and in experiment [2] was 0.01 to 10 nM throughout.

For the molecule `CC1CN(C(=O)Nc2ccc(C#N)cc2)Cc2c(C(N)=O)c(-c3cccc(F)c3)nn21` (single isomer, unassigned) [Compound A79, N^5-(4-Cyanophenyl)-2-(3-fluorophenyl)-7-methyl-6,7-dihydropyrazolo[1,5-a]pyrazine-3,5(4H)-dicarboxamide], the IC50 in experiment [1] and in experiment [2] was 100 to 2000 nM in each case.

Take `Cc1ccc(-c2nn3c(c2C(N)=O)CN(C(=O)Nc2ccc4c(c2)CS(=O)(=O)C4)CC3)cc1Cl` [Compound 251, 2-(3-Chloro-4-methylphenyl)-N^5-(2,2-dioxido-1,3-dihydrobenzo[c]thiophen-5-yl)-6,7-dihydropyrazolo[1,5-a] pyrazine-3,5(4H)-dicarboxamide]: the IC50 in experiment [1] and in experiment [2] was 0.01 to 10 nM throughout.

Turning to `NC(=O)c1c(-c2ccc(F)c(Cl)c2)nn2c1CN(C(=O)Nc1cc(Cl)cc(Cl)c1)CC2` [Compound 173, 2-(3-Chloro-4-fluorophenyl)-N^5-(3,5-dichlorophenyl)-6,7-dihydropyrazolo[1,5-a] pyrazine-3,5(4H)-dicarboxamide], the IC50 in experiment [1] and in experiment [2] was 0.01 to 10 nM throughout.

Turning to `NC(=O)c1c(-c2ccc(F)c(Cl)c2)nn2c1CN(C(=O)Nc1cccc(OC(F)(F)F)c1)CC2` [Compound 184, 2-(3-Chloro-4-fluorophenyl)-N^5-(3-(trifluoromethoxy)phenyl)-6,7-dihydropyrazolo[1,5-a] pyrazine-3,5(4H)-dicarboxamide], the IC50 in experiment [1] and in experiment [2] was 0.01 to 10 nM in each case.

As to `NC(=O)c1c(-c2cc(Cl)c(F)c(Cl)c2)nn2c1CN(C(=O)Nc1cc(Cl)cc(Cl)c1)CC2` [Compound 261, 2-(3,5-Dichloro-4-fluorophenyl)-N^5-(3,5-dichlorophenyl)-6,7-dihydropyrazolo[1,5-a] pyrazine-3,5(4H)-dicarboxamide], the 50% inhibitory concentration (IC50) in experiment [1] and in experiment [2] was 0.01 to 10 nM each time.

Regarding `NC(=O)c1c(-c2cccc(F)c2)nn2c1CN(C(=O)Nc1cc(F)cc(F)c1)CC2` [Compound 31, N^5-(3,5-Difluorophenyl)-2-(3-fluorophenyl)-6,7-dihydropyrazolo[1,5-a]pyrazine-3,5(4H)-dicarboxamide], the 50% inhibitory concentration (IC50) in experiment [1] and in experiment [2] was 0.01 to 10 nM each time.

Regarding `NC(=O)c1c(-c2cccc(F)c2)nn2c1CN(C(=O)Nc1ccnnc1)CC2` [Compound 82, 2-(3-Fluorophenyl)-N^5-(pyridazin-4-yl)-6,7-dihydropyrazolo[1,5-a]pyrazine-3,5(4H)-dicarboxamide], the IC50 in experiment [1] and in experiment [2] was 0.01 to 10 nM each time.

On to `N#Cc1ccc(NC(=O)N2CCn3nc(-c4cc(Cl)c(F)c(Cl)c4)c(C(N)=O)c3C2)cc1` [Compound 259, N^5-(4-Cyanophenyl)-2-(3,5-dichloro-4-fluorophenyl)-6,7-dihydropyrazolo[1,5-a]pyrazine-3,5(4H)-dicarboxamide], for which the 50% inhibitory concentration (IC50) in experiment [1] and in experiment [2] was 0.01 to 10 nM throughout.

On to `NC(=O)c1c(-c2cccc(F)c2)nn2c1CN(C(=O)Nc1ccc(C(F)(F)F)cc1)CC2` [Compound 21, 2-(3-Fluorophenyl)-N^5-(4-(trifluoromethyl)phenyl)-6,7-dihydropyrazolo[1,5-a]pyrazine-3,5(4H)-dicarboxamide], for which the IC50 in experiment [1] and in experiment [2] was 0.01 to 10 nM each time.

As to `N#Cc1ccc(NC(=O)N2Cc3c(C(N)=O)c(-c4cccc(F)c4)nn3C3(CC3)C2)cc1` [Compound A87, N^5′-(4-Cyanophenyl)-2′-(3-fluorophenyl)-4′H-spiro[cyclopropane-1,7′-pyrazolo[1,5-a]pyrazine]-3′,5′(6′H)-dicarboxamide], the IC50 in experiment [1] and in experiment [2] was 0.01 to 10 nM each time.

For `Cc1cc(NC(=O)N2CCn3nc(-c4cnc(F)c(Cl)c4)c(C(N)=O)c3C2)ccc1C#N` [Compound 294, 2-(5-Chloro-6-fluoropyridin-3-yl)-N^5-(4-cyano-3-methylphenyl)-6,7-dihydropyrazolo[1,5-a] pyrazine-3,5(4H)-dicarboxamide], the concentration for half-maximal inhibition (IC50) in experiment [1] and in experiment [2] was 0.01 to 10 nM in each case.

As for `Cc1cc(-c2nn3c(c2C(N)=O)CN(C(=O)Nc2ccc(C#N)c(F)c2)CC3)ccc1F` [Compound 243, N^5-(4-Cyano-3-fluorophenyl)-2-(4-fluoro-3-methylphenyl)-6,7-dihydropyrazolo[1,5-a] pyrazine-3,5(4H)-dicarboxamide], the concentration for half-maximal inhibition (IC50) in experiment [1] and in experiment [2] was 0.01 to 10 nM in each case.

For the molecule `COC(=O)N1CCC(NC(=O)N2CCn3nc(-c4cccc(F)c4)c(C(N)=O)c3C2)CC1` [Compound 99, Methyl 4-(3-carbamoyl-2-(3-fluorophenyl)-4,5,6,7-tetrahydropyrazolo[1,5-a]pyrazine-5-carboxamido)piperidine-1-carboxylate], the half-maximal inhibitory concentration (IC50) in experiment [1] and in experiment [2] was 0.01 to 10 nM in each case.

Turning to `COc1ccc(NC(=O)N2CCn3nc(-c4cccc(F)c4)c(C(N)=O)c3C2)cc1Cl` [Compound 67, N^5-(3-Chloro-4-methoxyphenyl)-2-(3-fluorophenyl)-6,7-dihydropyrazolo[1,5-a]pyrazine-3,5(4H)-dicarboxamide], the IC50 in experiment [1] and in experiment [2] was 0.01 to 10 nM each time.

Take `CC1Cn2nc(-c3cccc(Cl)c3)c(C(N)=O)c2CN1C(=O)Nc1ccc(C#N)cc1` (single isomer, unassigned) [Compound 331, 2-(3-Chlorophenyl)-N^5-(4-cyanophenyl)-6-methyl-6,7-dihydropyrazolo[1,5-a]pyrazine-3,5(4H)-dicarboxamide]: the IC50 in experiment [1] and in experiment [2] was 0.01 to 10 nM in each case.

For the molecule `CC1Cn2nc(-c3cccc(Cl)c3)c(C(N)=O)c2CN1C(=O)Nc1ccc(C#N)cc1` (single isomer, unassigned) [Compound 332, 2-(3-Chlorophenyl)-N^5-(4-cyanophenyl)-6-methyl-6,7-dihydropyrazolo[1,5-a]pyrazine-3,5(4H)-dicarboxamide], the IC50 in experiment [1] and in experiment [2] was 0.01 to 10 nM in each case.

Regarding `NC(=O)c1c(-c2cccc(Cl)c2)nn2c1CN(C(=O)Nc1cccc(F)c1)CC2` [Compound 167, 2-(3-Chlorophenyl)-N^5-(3-fluorophenyl)-6,7-dihydropyrazolo[1,5-a] pyrazine-3,5(4H)-dicarboxamide], the IC50 in experiment [1] and in experiment [2] was 0.01 to 10 nM throughout.

`N#Cc1ccc(NC(=O)N2CCn3nc(-c4cccc(Cl)c4)c(C(N)=O)c3C2)cc1OC(F)(F)F` [Compound A39, 2-(3-Chlorophenyl)-N^5-(4-cyano-3-(trifluoromethoxy)phenyl)-6,7-dihydropyrazolo[1,5-a]pyrazine-3,5(4H)-dicarboxamide]: the IC50 in experiment [1] and in experiment [2] was 0.01 to 10 nM in each case.

With `N#Cc1ccc(NC(=O)N2Cc3c(C(N)=O)c(-c4ccc(F)c(Cl)c4)nn3C3(COC3)C2)cc1` [Compound A88, 2′-(3-Chloro-4-fluorophenyl)-N^5′-(4-cyanophenyl)-4′H-spiro[oxetane-3,7′-pyrazolo[1,5-a]pyrazine]-3′,5′(6′H)-dicarboxamide], the IC50 in experiment [1] and in experiment [2] was 0.01 to 10 nM in each case.
